Source: article PMC8839658, “Design and Activity of Novel Oxadiazole Based Compounds That Target Poly(ADP-ribose) Polymerase” (Molecules, 2022)
Read-outs that look alike come from different tables or passages of the source.

Columns and labels:
MCF-7 cells [1] = test: MCF-7 cell viability assay (Alamar Blue); format: cell-based, human
Description: (§1) Initially, the newly synthesized oxadiazoles were examined in cell viability studies in human breast cancer (MCF-7) cells using Alamar Blue assays.
(§2) MCF-7 and MDA-MB-231 (2000) cells were cultured in MEM or Leibovitz’s L-15 medium enriched with 2% FBS and maintained in a humidified atmosphere of 5% CO2 at 37 °C [44]. DMSO dissolved compounds were kept as a stock solution, and diluted with a cell culture medium to the desired concentration. Cancer cells (4 × 10^3) were grown overnight in 96-well plates, cultured, and treated with oxadiazoles or Olaparib at 0, 0.01, 0.1, 10, 100, and 1000 µM concentrations for 72 h. The inhibitory effect of the compounds was assessed using Alamar Blue reagent.
(§3) MCF-7 and MDA-MB-231 were treated with 5u, 5s and Olaparib (0, 0.01, 0.1, 1, 10, 100 µM) for 72 h, respectively. The viability of MCF-7 (A) and MDA-MB-231 cells (B) were analyzed using a microplate reader to measure the fluorescence of Alamar Blue reagent (excitation wavelength is between 530–560 nm and emission wavelength is 590 nm). The results are means of triplicate determinations.

MDA-MB-231 cells [2] = test: MDA-MB-231 cell viability assay (Alamar Blue); format: cell-based, human; details: MDA-MB-231, 72 h
Description: as §1, §2, §3

[3] = target: T1, recombinant human PARP enzyme (PARP1) (Homo sapiens, UniProt P09874); test: PARP activity, PARP/Apoptosis Universal Colorimetric Assay Kit; format: biochemical; details: n = 3
T1 construct: purchased R&D Systems Ltd., Abingdon, UK 4677-096-K
Description: PARP activity was measured using the PARP/Apoptosis Universal Colorimetric Assay Kit (4677-096-K, R&D Systems Ltd., Abingdon, UK). The enzyme inhibition assay uses the histone proteins immobilized 96-well plate, which measures the incorporation of ADP-ribose (biotin-tagged), followed by detection using streptavidin-conjugated horse-radish peroxidase, and finally the color development after the addition of substrate. Oxadiazoles were incubated with the recombinant human PARP enzyme prior to detection.

MCF-7 cells [4] = test: Western blot, PARP1 cleavage in MCF-7 cells; format: cell-based, human; details: MCF-7, 1 or 10 µM, 60 h
Description: (§4) Western blot analysis was performed to determine the levels of PARP1 cleavage and p-H2AX in MCF-7 and MDA-MB-231 cells using previously reported methods. Cells at 50–60% confluence were treated with compounds and incubated for 60 h in 2% FBS. MCF-7 and MDA-MB-231 cells were also treated with Olaparib, 5u, or 5s and the levels of cleaved PARP1 and p-H2A-X were determined using the respective antibodies.
(§5) Figure 4 The effect of compounds 5u, 5s, and Olaparib on PARP1 cleavage (upper panel of A,B) phosphorylation of H2A-X (Ser139) (lower panel of A,B), and CASPASE-3 activity (C,D) in MCF-7 and MDA-MB-231 cells. Cancer cells were treated with or without compounds 5u, 5s,and Olaparib (1 or 10 µM). The protein levels after treatment were observed by western blot analysis. GAPDH was used as input control. The data are expressed as mean ± SEM. ** p ≤ 0.01; *** p ≤ 0.001.

MDA-MB-231 cells [5] = test: Western blot, PARP1 cleavage in MDA-MB-231 cells; format: cell-based, human; details: MDA-MB-231, 1 or 10 µM, 60 h
Description: as §4, §5

MCF-7 cells [6] = test: Western blot, p-H2AX (Ser139) in MCF-7 cells; format: cell-based, human; details: MCF-7, 1 or 10 µM, 60 h
Description: as §4, §5

MDA-MB-231 cells [7] = test: Western blot, p-H2AX (Ser139) in MDA-MB-231 cells; format: cell-based, human; details: MDA-MB-231, 1 or 10 µM, 60 h
Description: as §4, §5

MCF-7 cells [8] = test: Foci formation assay, MCF-7 cells; format: cell-based, human; details: MCF-7, crystal violet
Description: (§6) MCF-7 and MDA-MB-231 cells were plated in six-well plates in 2 mL media with or without compounds and cultured. When foci had formed, MCF-7 and MDA-MB-231 cells were washed with PBS and fixed with ice-cold methanol for 10 min at 4°C. Methanol was removed and crystal violet solution was used to stain foci at room temperature for 10 min. The resultant solution was removed; immobilized MCF-7 and MDA-MB-231 cells were rinsed with distilled water and dried at room temperature.
(§7) Figure 5 Compounds 5u, 5s, and Olaparib inhibited the foci formation of MCF-7 (left panel of A) and MDA-MB-231 (left panel of B) cells. Visualization of foci formed was achieved by use of Crystal Violet. Inhibition of foci formation was also quantified (right panels of both A,B) The data are expressed as mean ± SEM. * p ≤ 0.05; ** p ≤ 0.01; *** p ≤ 0.001.

MDA-MB-231 cells [9] = test: Foci formation assay, MDA-MB-231 cells; format: cell-based, human; details: MDA-MB-231, crystal violet
Description: as §6, §7

MCF-7 cells [10] = test: 3D Matrigel growth, MCF-7 cells; format: cell-based, human; details: MCF-7, 4% Matrigel, 1 or 10 µM, Alamar Blue
Description: (§8) Cells were grown in a medium containing 4% Matrigel. Cells were treated with vehicles or compounds 5s, 5u, or Olaprib (1 or 10 µM), after colonies had formed. Compounds were added into the culture medium every 3 days for a total of 2 cycles. Alamar Blue assay was used for quantification of live cells. The data are expressed as mean ± SEM. * p ≤ 0.05; ** p ≤ 0.01; *** p ≤ 0.001.

MDA-MB-231 cells [11] = test: 3D Matrigel growth, MDA-MB-231 cells; format: cell-based, human; details: MDA-MB-231, 4% Matrigel, 1 or 10 µM, Alamar Blue
Description: as §8

PARP1 [12] = details: read-out: IC50, PARP1 activity; cited from earlier work
PARP1 [13] = details: read-out: cellular EC50; cited from earlier work
[14] = target: autophagy activating kinase 1 (ULK1); design: method as in PMID 32967366; details: cited from earlier work
[15] = Homo sapiens, MCF7, 72 h, MCF-7, 72 h, Alamar Blue, Figure 2A, read-out: Log IC50, MCF-7 (converted)
[16] = Homo sapiens, MCF7, 72 h, MCF-7, 72 h, Alamar Blue, read-out: IC50, cell viability of MCF-7 cells
[17] = MCF-7, 72 h, Alamar Blue, read-out: IC50, cell viability of MCF-7 cells
[18] = Homo sapiens, Alamar Blue, Figure 2B, read-out: Log IC50, MDA-MB-231 (converted)
[19] = Homo sapiens, Alamar Blue, read-out: IC50, cell viability of MDA-MB-231 cells
[20] = Alamar Blue, read-out: IC50, cell viability of MDA-MB-231 cells

T1 sequence (P09874 whole entry): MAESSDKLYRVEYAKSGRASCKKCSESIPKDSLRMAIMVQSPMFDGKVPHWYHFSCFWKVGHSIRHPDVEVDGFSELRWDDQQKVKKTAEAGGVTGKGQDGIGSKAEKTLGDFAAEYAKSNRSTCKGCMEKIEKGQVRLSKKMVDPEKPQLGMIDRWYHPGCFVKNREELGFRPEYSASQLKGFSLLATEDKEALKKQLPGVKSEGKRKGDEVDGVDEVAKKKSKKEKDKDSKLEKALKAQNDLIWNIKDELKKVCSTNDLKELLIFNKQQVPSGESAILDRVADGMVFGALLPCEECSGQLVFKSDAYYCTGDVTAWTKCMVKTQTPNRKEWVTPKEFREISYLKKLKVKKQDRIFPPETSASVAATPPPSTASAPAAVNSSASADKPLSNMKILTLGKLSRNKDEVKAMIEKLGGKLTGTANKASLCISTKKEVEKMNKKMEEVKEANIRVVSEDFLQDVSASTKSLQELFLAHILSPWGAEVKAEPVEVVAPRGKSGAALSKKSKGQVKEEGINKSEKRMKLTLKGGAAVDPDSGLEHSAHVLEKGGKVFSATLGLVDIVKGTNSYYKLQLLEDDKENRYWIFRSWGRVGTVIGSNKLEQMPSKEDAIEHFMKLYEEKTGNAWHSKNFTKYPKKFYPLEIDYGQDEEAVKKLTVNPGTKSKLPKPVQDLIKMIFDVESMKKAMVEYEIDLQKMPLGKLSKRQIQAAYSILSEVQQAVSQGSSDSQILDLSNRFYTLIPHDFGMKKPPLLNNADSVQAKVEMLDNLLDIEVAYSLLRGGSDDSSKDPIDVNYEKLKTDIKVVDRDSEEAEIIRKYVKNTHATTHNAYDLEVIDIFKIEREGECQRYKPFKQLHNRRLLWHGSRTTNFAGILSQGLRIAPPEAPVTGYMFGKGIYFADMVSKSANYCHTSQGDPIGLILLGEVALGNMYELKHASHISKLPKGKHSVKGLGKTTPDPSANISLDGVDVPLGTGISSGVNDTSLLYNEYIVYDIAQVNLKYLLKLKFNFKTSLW

| Compound | IC50 (MCF-7 cells [1]; [15]) [µM] | IC50 (MCF-7 cells [1]; [16]) [µM] | IC50 (MCF-7 cells [1]; [17]) [µM] | IC50 (MDA-MB-231 cells [2]; [18]) [µM] | IC50 (MDA-MB-231 cells [2]; [19]) [µM] | IC50 (MDA-MB-231 cells [2]; [20]) [µM] | inhibition at 0.01 µM [3] [%] | inhibition at 0.1 µM [3] [%] | inhibition at 1 µM [3] [%] | inhibition at 10 µM [3] [%] | inhibition at 100 µM [3] [%] | PARP1 cleavage (MCF-7 cells [4]) | PARP1 cleavage (MDA-MB-231 cells [5]) | level of p-H2AX (MCF-7 cells [6]) | level of p-H2AX (MDA-MB-231 cells [7]) | foci formation (MCF-7 cells [8]) | foci formation (MDA-MB-231 cells [9]) | 3D growth in Matrigel (MCF-7 cells [10]) | 3D growth in Matrigel (MDA-MB-231 cells [11]) | other results |
| --- | --- | --- | --- | --- | --- | --- | --- | --- | --- | --- | --- | --- | --- | --- | --- | --- | --- | --- | --- | --- |
| COc1ccc(Cc2nnc(-c3cccc(-c4cccc(C=O)c4)c3)o2)cc1 [compound 5u, 3′-(5-(4-Methoxybenzyl)-1,3,4-oxadiazol-2-yl)-[1,1′-biphenyl]-3-carbaldehyde] | 1.45 | 1.45 | 1.4 | 29.5 | 29.3 | 29.3 | 4.82 | 6.84 | 45.4 | 54.2 | 82.2 | Equivalent levels of cleaved PARP1 | Equivalent levels of cleaved PARP1 | equivalent increases in the level of p-H2AX | equivalent increases in the level of p-H2AX | decreased in a dose-dependent manner | decreased in a dose-dependent manner | roughly equivalent efficacy to Olaparib | roughly equivalent efficacy to Olaparib | – |
| COc1ccc(Cc2nnc(-c3cccc(-c4ccnc(F)c4C)c3)o2)cc1OC [compound 5s, 2-(3,4-Dimethoxybenzyl)-5-(3-(2-fluoro-3-methylpyridin-4-yl)phenyl)-1,3,4-oxadiazole] | 15.5 | 15.3 | 15.3 | 19.1 | 19.2 | 19.2 | 2.38 | 10.6 | 21.3 | 65 | 76.5 | Equivalent levels of cleaved PARP1 | Equivalent levels of cleaved PARP1 | equivalent increases in the level of p-H2AX | equivalent increases in the level of p-H2AX | decreased in a dose-dependent manner | decreased in a dose-dependent manner | roughly equivalent efficacy to Olaparib | roughly equivalent efficacy to Olaparib | – |
| O=C(c1cc(Cc2n[nH]c(=O)c3ccccc23)ccc1F)N1CCN(C(=O)C2CC2)CC1 [Olaparib, reference compound] | – | – | – | – | – | – | – | – | – | – | – | Equivalent levels of cleaved PARP1 | Equivalent levels of cleaved PARP1 | equivalent increases in the level of p-H2AX | equivalent increases in the level of p-H2AX | decreased in a dose-dependent manner | decreased in a dose-dependent manner | inhibited the growth | inhibited the growth | IC50 (MCF-7 cells [1]; Homo sapiens, MCF7, 72 h, read-out: Log IC50, MCF-7, MCF-7, 72 h, Alamar Blue (converted), Figure 2A): 3.31 µM; IC50 (MCF-7 cells [1]; read-out: IC50, cell viability of MCF-7 cells, MCF-7, 72 h, Alamar Blue): 3.2 µM; IC50 (MDA-MB-231 cells [2]; Homo sapiens, read-out: IC50, cell viability of MDA-MB-231 cells): 70.2 µM; IC50 (MDA-MB-231 cells [2]; Homo sapiens, read-out: IC50, cell viability of MDA-MB-231 cells, MDA-MB-231, 72 h, Alamar Blue): 70.2 µM; IC50 (MDA-MB-231 cells [2]; Homo sapiens, read-out: Log IC50, MDA-MB-231 (converted)): 70.8 µM |
| NC(=O)c1cccc2[nH]c(-c3ccc(-c4nnco4)cc3)nc12 [compound 1] | – | – | – | – | – | – | – | – | – | – | – | – | – | – | – | – | – | – | – | IC50 (PARP1 [12]): 0.001 µM; EC50 (PARP1 [13]): 0.0037 µM |
| FC(F)(F)c1cnc(Nc2ccc3c(c2)OCCO3)nc1NC1CC1 [compound 2] | – | – | – | – | – | – | – | – | – | – | – | – | – | – | – | – | – | – | – | IC50 [14]: 0.014 µM |
